# Laboratory results from PubChem BioAssay AID720570 (Broad Institute, 2013).
# The source made the active and inactive calls.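 The calls were made as follows: active = cell-killing curve crosses a set limit at a concentration no more than twice the top valid dose; inconclusive = flat curve with a 30 to 70% loss, or a poor fit; inactive = signal rising instead of falling, and the rest.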
# System: TC71 Ewing sarcoma viability, CellTiter-Glo ATP, 72 h
# Assay: cytotoxicity in EWS/Fli1-dependent TC71 cells – cell-based, luminescence, cherry-picked samples, retest, confirmation (AID 720570)
row,SMILES,AC35
1,Cc1noc(C)c1C(=O)Nc1sccc1C(N)=O,13.6 µM
2,CN(C[C@H]1N[C@@H](CO)[C@@H]1c1ccc(C2=CCCC2)cc1)C(=O)c1cccc(F)c1,3.82 µM
3,Cc1ccc(S(=O)(=O)Nc2ccc3c(c2)C(=O)N([C@@H](C)CO)C[C@@H](C)[C@H](CN(C)Cc2ccc(C(F)(F)F)cc2)OCCCC[C@H](C)O3)cc1,11.7 µM
4,O=c1cc(-c2ccccc2)oc2ccc3ccccc3c12,10.7 µM
5,C(=N\Nc1nc2ccccc2[nH]1)/c1ccccn1,4.84 µM
6,COC(=O)CC1(C(=O)OC)Oc2ccc(Br)cc2C(=O)N1c1cccc(Cl)c1Cl (centres undefined),24.9 µM
7,CCc1ccc2oc(C(=O)N3CCN(c4ccccc4OC)CC3)cc(=O)c2c1,12.6 µM
8,COc1ccc(C(CCNCc2ccc(OC(C)C)cc2)C(C)C)cc1 (centres undefined),21.8 µM
9,Cc1nc2ncccn2c1-c1csc(Nc2ccc(O)cc2)n1,4.74 µM
10,COc1ccc(-c2ccc3c(c2)[C@H]2[C@H](CCN2S(=O)(=O)c2ccc(OC)cc2)[C@@H](CO)N3C)cc1,4.48 µM
11,CN(C)c1ccc(-c2ccnc3c2CC(C)(C(=O)NCc2ccco2)O3)cc1 (centres undefined),10.4 µM
12,COc1ccc(/C=C(/C(=O)c2cccs2)N2C=CC=CC2=C(C#N)C#N)cc1,24.6 µM
13,C[C@H](CO)N1C[C@H](C)[C@H](CN(C)Cc2ccc(C(F)(F)F)cc2)Oc2ccc(NC(=O)CCCCCC(=O)Nc3ccccc3N)cc2CC1=O,11.5 µM
14,Cc1ccc(/C=N/Nc2ccnc3cc(Cl)ccc23)c(C)c1,11.8 µM
15,Cc1cc(C)c2sc(NNC(=O)c3ccc(S(=O)(=O)N4CCc5ccccc5C4)cc3)nc2c1,2.4 µM
16,N#C[C@H]1[C@H](c2ccc(-c3ccccc3F)cc2)[C@@H](CO)N1C(=O)Cc1ccccc1,6.75 µM
17,CCc1ccc(Cn2ncc3c(C(=O)O)cc(C)nc32)cc1,20.8 µM
18,Cc1ccc(S(=O)(=O)Nc2ccc3c(c2)C(=O)N([C@H](C)CO)C[C@@H](C)[C@@H](CN(C)Cc2ccc(C(=O)Nc4ccccc4N)cc2)O3)cc1,11 µM
19,COc1ccc(Cn2cc3c(-c4ccc(F)cc4)nnc-3c3cc(OC)c(OC)cc32)cc1,13.4 µM
20,CCOc1cc(/C=N/Nc2cc(C)nc(-n3nc(C)cc3C)n2)ccc1O,7.76 µM
21,C[C@H]1CN([C@@H](C)CO)C(=O)c2cc(N(C)C)ccc2O[C@@H]1CN(C)Cc1ccc(C(=O)Nc2ccccc2N)cc1,17.7 µM
22,C[C@@H]1CN([C@@H](C)CO)C(=O)Cc2cc(N(C)C)ccc2O[C@@H]1CN(C)Cc1ccccc1,17.7 µM

row,SMILES,AC35
1,C(=NNc1ccc2ccccc2n1)c1ccccn1,1.55 µM
2,C[C@H]1CN([C@@H](C)CO)C(=O)Cc2cc(NC(=O)CCCCCC(=O)Nc3ccccc3N)ccc2O[C@H]1CN(C)Cc1ccc(C(F)(F)F)cc1,11.6 µM
3,CN(C)c1ncnc2c1ccn2C1OC(CO)C(O)C1O (centres undefined),7.06 µM
4,C[C@H](CO)N1C[C@H](C)[C@H](CN(C)Cc2ccc(Oc3ccccc3)cc2)Oc2ccc(NC(=O)Cn3cnnn3)cc2CC1=O,26.9 µM
5,CCOc1ccc(N=Nc2ccc(O)c3ncccc23)cc1,2.8 µM
6,O=C(Nc1ccc(F)cc1)N1CCCCN2[C@@H](CO)[C@H](c3ccc(C4=CCCCC4)cc3)[C@@H]2C1,22.4 µM
7,O=c1ccc2ccccc2c2ccccc12,10.5 µM
8,CN1C(=O)c2cc(NC(=O)c3ccc(Cl)cc3)ccc2OC[C@@H]2O[C@@H](CC(=O)NCc3cccc(F)c3)CC[C@H]21,5.21 µM
9,COc1ccccc1NC(=O)N1[C@@H]2CNC[C@H]1[C@@H]2c1ccc(-c2ccc(C#N)cc2)cc1,> 23.5 µM (inactive)
10,COc1cc(-c2cnc3c(NC=O)cc(-c4cccc(NC(C)=O)c4)cn23)cc(OC)c1OC,0.385 µM
11,CC(C)N1C/C(=C/c2ccsc2)C(=O)/C(=C/c2ccsc2)C1,14 µM
12,Cc1[nH][nH]c(=O)c1C(c1c(C)[nH][nH]c1=O)c1cn(Cc2ccc(Cl)c(Cl)c2)c2ccccc12,11.3 µM
13,CN(C)CC1CCC/C(=C\c2ccc(OC(=O)c3ccc(Cl)cc3)cc2)C1=O (centres undefined),3.4 µM
14,C[C@@H]1CN([C@H](C)CO)C(=O)c2cc(NC(=O)c3ccccc3)ccc2O[C@@H](C)CCCCO[C@H]1CN(C)C(=O)Nc1cccc2ccccc12,1.58 µM
15,Oc1c(C(c2ccc(Cl)cc2)N2CCCC2)cc(Cl)c2cccnc12 (centres undefined),6.32 µM
16,Nc1ncn([C@@H]2O[C@H](CO)[C@@H](O)[C@H]2O)c(=O)n1,11.7 µM
17,O=C(NC[C@@H]1N[C@@H](CO)[C@H]1c1ccc(C2=CCCCC2)cc1)c1cccc(F)c1,12.3 µM
18,Cc1nn(Cc2ccccc2Cl)c2sc(C(=O)Nc3ccccc3N3CCOCC3)cc12,13.2 µM
19,CC(C)N1C/C(=C/c2cccnc2)C(=O)/C(=C/c2cccnc2)C1,22.6 µM
20,CC(=O)OC1CC(OC2C(O)CC(OC3C(O)CC(OC4CCC5(C)C(CCC6C5CCC5(C)C(C7=CC(=O)OC7)CCC65O)C4)OC3C)OC2C)OC(C)C1OC1OC(CO)C(O)C(O)C1O (centres undefined),0.258 µM
21,Cc1ccc(S(=O)(=O)Nc2ccc3c(c2)C(=O)N([C@@H](C)CO)C[C@@H](C)[C@@H](CN(C)Cc2ccc(C(=O)Nc4ccccc4N)cc2)O3)cc1,11.5 µM
22,N#C[C@@H]1[C@H](c2ccc(C#Cc3ccc(F)cc3)cc2)[C@@H](CO)N1C(=O)Nc1ccc(F)cc1,10.9 µM
